Experimental data: ChEMBL document CHEMBL1641523, “Hypericins and thioredoxin reductase: Biochemical and docking studies disclose the molecular basis for effective inhibition by naphthodianthrones” (Bioorg Med Chem, 2011)
Calls of active or inactive are those of the source. The rule behind the calls is not given here.

Experiments:
[1] = molecular target: Thioredoxin reductase 2, mitochondrial (Rattus norvegicus, UniProt Q9Z0J5); assay: Inhibition of rat liver mitochondrial TrxR2 by spectrophotometry
[2] = molecular target: T1, Thioredoxin reductase 1, cytoplasmic (Rattus norvegicus, UniProt O89049); assay: Inhibition of rat liver cytosolic TrxR1 by spectrophotometry
T1 sequence (O89049 whole entry): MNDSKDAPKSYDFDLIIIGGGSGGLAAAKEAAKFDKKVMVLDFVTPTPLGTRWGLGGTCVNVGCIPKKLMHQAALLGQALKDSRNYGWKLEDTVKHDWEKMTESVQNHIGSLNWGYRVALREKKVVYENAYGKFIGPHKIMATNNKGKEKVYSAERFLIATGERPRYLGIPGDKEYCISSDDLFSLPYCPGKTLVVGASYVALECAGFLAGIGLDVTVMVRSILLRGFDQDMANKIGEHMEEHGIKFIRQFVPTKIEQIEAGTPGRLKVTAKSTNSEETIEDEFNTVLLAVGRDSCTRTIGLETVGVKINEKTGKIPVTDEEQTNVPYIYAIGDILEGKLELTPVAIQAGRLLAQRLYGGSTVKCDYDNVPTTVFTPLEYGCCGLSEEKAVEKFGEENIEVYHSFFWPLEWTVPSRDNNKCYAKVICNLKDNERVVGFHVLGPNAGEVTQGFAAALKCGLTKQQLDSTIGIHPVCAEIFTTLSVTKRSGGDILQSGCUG

[3] = molecular target: T2, Thioredoxin reductase 1, cytoplasmic (Rattus norvegicus) (UniProt O89049); assay: Inhibition of rat liver cytosolic TrxR1 at 100 uM by spectrophotometry in presence of 0.25 mM NADPH
T2 sequence (whole entry): T1 sequence (O89049 whole entry)

[4] = molecular target: T2, Thioredoxin reductase 1, cytoplasmic (Rattus norvegicus); assay: Inhibition of rat liver cytosolic TrxR1 at 20 uM after 1 hr by spectrophotometry
[5] = molecular target: T2, Thioredoxin reductase 1, cytoplasmic (Rattus norvegicus); assay: Inhibition of rat liver cytosolic TrxR1 at 20 uM after 2 mins by spectrophotometry
Glutathione reductase = molecular target: T3, Glutathione reductase (Saccharomyces cerevisiae S288c, UniProt P41921); assay: Inhibition of yeast glutathione reductase by spectrophotometry
T3 sequence (P41921 whole entry): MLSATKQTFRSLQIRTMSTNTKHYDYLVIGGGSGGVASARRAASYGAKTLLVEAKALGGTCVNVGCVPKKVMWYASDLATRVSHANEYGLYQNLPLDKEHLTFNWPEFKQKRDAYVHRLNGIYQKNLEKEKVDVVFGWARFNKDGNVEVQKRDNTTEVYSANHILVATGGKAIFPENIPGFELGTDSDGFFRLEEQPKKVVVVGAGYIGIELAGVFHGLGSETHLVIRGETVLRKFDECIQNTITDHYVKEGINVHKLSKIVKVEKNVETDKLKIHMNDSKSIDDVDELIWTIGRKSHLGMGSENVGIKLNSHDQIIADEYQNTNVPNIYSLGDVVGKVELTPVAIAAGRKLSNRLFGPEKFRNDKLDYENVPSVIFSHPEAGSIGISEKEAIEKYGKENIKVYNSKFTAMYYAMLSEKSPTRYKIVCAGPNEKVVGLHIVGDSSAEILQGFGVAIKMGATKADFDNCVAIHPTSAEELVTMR

[6] = molecular target: Thioredoxin reductase 2, mitochondrial (Rattus norvegicus) (UniProt Q9Z0J5); assay: Inhibition of rat liver mitochondrial TrxR2 at 100 uM by spectrophotometry in presence of 0.25 mM NADPH
[7] = molecular target: T2, Thioredoxin reductase 1, cytoplasmic (Rattus norvegicus); assay: Inhibition of rat liver cytosolic TrxR1 at 5 uM after 2 mins by spectrophotometry
[8] = molecular target: T1, Thioredoxin reductase 1, cytoplasmic; assay: Mixed-type inhibition of rat liver cytosolic TrxR1 at protein-substrate complex by Lineweaver-Burk plot analysis
[9] = molecular target: T2, Thioredoxin reductase 1, cytoplasmic (Rattus norvegicus); assay: Inhibition of rat liver cytosolic TrxR1 at 50 to 100 uM by spectrophotometry in presence of 0.025 mM NADPH
[10] = molecular target: T1, Thioredoxin reductase 1, cytoplasmic; assay: Mixed-type inhibition of rat liver cytosolic TrxR1 by Lineweaver-Burk plot analysis

Sequence of Thioredoxin reductase 2, mitochondrial (Q9Z0J5 whole entry): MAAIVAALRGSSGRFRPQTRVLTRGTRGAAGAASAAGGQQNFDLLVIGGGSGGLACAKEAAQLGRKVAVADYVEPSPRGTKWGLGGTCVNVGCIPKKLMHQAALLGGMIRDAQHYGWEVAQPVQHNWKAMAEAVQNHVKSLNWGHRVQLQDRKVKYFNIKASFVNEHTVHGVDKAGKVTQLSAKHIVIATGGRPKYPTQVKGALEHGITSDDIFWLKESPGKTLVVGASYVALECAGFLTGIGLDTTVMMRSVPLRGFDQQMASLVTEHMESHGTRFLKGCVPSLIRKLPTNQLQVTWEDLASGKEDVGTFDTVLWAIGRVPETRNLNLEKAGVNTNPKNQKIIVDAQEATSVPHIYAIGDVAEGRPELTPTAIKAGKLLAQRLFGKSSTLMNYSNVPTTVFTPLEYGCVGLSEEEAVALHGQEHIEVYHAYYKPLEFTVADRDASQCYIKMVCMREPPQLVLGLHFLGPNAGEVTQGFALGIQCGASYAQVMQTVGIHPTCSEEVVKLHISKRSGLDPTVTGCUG
Sequence of Thioredoxin reductase 2, mitochondrial (Rattus norvegicus) (Q9Z0J5 whole entry): as above

IC50 ([1]; read-out: IC50) | IC50 ([2]; read-out: IC50) | SMILES | other results
> 200 µM | > 200 µM | O=C1c2c(O)cccc2C([C@@H]2O[C@H](CO)[C@@H](O)[C@H](O)[C@H]2O)c2cc(CO)cc(O)c21 (some centres not stated) [ALOIN] | 
> 200 µM | > 200 µM | O=C1c2ccccc2Cc2ccccc21 [ANTHRONE] | 
181 µM | 194 µM | Cc1cc(O)c2c(c1)C(=O)c1cccc(O)c1C2=O [CHRYSOPHANOL] | 
> 200 µM | > 200 µM | O=C1c2cccc(O)c2C(=O)c2c(O)cccc21 [DANTHRON] | 
> 200 µM | > 200 µM | Cc1cc(O)c2c(c1)C(=O)c1cc(O[C@@H]3O[C@@H](C)[C@H](O)[C@@H](O)[C@H]3O)cc(O)c1C2=O [FRANGULIN A] | 
132 µM | 185 µM | COc1cc(O)c2c(c1)C(=O)c1cc(C)cc(O)c1C2=O [PHYSCION] | 
> 200 µM | > 200 µM | O=C1c2ccccc2C(=O)c2c(O)ccc(O)c21 [QUINIZARIN] | 
123 µM | 84 µM | O=C(O)c1cc(O)c2c(c1)C(=O)c1cccc(O)c1C2=O [RHEIN] | 
> 200 µM | > 200 µM | O=C(O)c1cc(O)c2c(c1)C([C@H]1c3cc(C(=O)O)cc(O)c3C(=O)c3c(O[C@@H]4O[C@H](CO)[C@@H](O)[C@H](O)[C@H]4O)cccc31)c1cccc(O[C@@H]3O[C@H](CO)[C@@H](O)[C@H](O)[C@H]3O)c1C2=O (some centres not stated) [SENNOSIDE A,B] | 
> 200 µM | > 200 µM | Cc1cc(O)c2c(c1)C(=O)c1c(c(O)cc(O)c1-c1c(O[C@@H]3O[C@H](CO)[C@@H](O)[C@H](O)[C@H]3O)cc(O)c3c1C(=O)c1cc(C)cc(O)c1C3=O)C2=O [SKYRIN GLUCOSIDE] | 

SMILES | IC50 ([1]; read-out: IC50) | IC50 ([2]; read-out: IC50) | other results
O=C1c2cccc(O)c2C(=O)c2c(O)cc(CO)cc21 [ALOE-EMODIN] | > 200 µM | 180 µM | 
Cc1cc(O)c2c(=O)c3c(O)cc(O)c4c5c(O)cc(O)c6c(=O)c7c(O)cc(C)c8c1c2c(c34)c(c78)c65 [HYPERICIN] | 49 µM | 198 µM | inhibition [3]: inactive; inhibition [4]: 60%; IC50 ([1]; read-out: pIC50 (converted)): 43.2 µM; inhibition [5]: 20%; IC50 (Glutathione reductase): 3.67 µM; inhibition [6]: inactive; IC50 ([2]; read-out: pIC50 (converted)): 158 µM
Cc1cc(O)c2c(=O)c3c(O)cc(O)c4c5c(O)cc(O)c6c(=O)c7c(O)cc(CO)c8c1c2c(c34)c(c65)c78 [PSEUDOHYPERICIN] | 7.9 µM | 4.6 µM | inhibition [3]: Active; IC50 ([1]; read-out: pIC50 (converted)): 7.45 µM; inhibition [7]: 50%; IC50 (Glutathione reductase): 2.2 µM; Ki [8]: 8.1 µM; inhibition [6]: Active; inhibition [9]: Active; IC50 ([2]; read-out: pIC50 (converted)): 4.41 µM; Ki [10]: 1.9 µM
